Consider nine compounds from PubChem BioAssay (NCI).

SMILES strings stand for the structures.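 All cell lines were grown in 96-well plates and treated with compound for 48 hours. TGI: concentration producing complete growth inhibition.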 Bounds are passed on as bounds.

Test systems include CCRF-CEM leukemia; HCT-15 colon; A549 NSCLC; OVCAR-4 ovarian; LOX IMVI melanoma; MCF7 breast; UACC-62 melanoma; IGROV1 ovarian; UO-31 renal; HL-60(TB) leukemia; M14 melanoma; T-47D breast; OVCAR-5 ovarian; SF-539 CNS; HCC-2998 colon; 786-0 renal; A498 renal.
Common to all, as to assay: NCI-60 cell line screen, 48 h

With `COC(=O)c1ccccc1C1CN=NC12Cc1ccccc1C2=O` (configuration not stated), the TGI in the test with CCRF-CEM leukemia, in the test with HCT-15 colon, with A549 NSCLC, in the test on OVCAR-4 ovarian, with LOX IMVI melanoma and with MCF7 breast was more than 100 µM in each case. For the same compound, the TGI with UACC-62 melanoma, in the test on IGROV1 ovarian, with UO-31 renal, in the test with HL-60(TB) leukemia, in the test with M14 melanoma and in the test on T-47D breast was more than 100 µM each time. Moreover, the TGI with OVCAR-5 ovarian, with SF-539 CNS, with HCC-2998 colon and in the test on 786-0 renal was more than 100 µM in each case.
`CCOP(=O)(OCC)/C(=C/NC(=S)c1ccncc1)C(=O)OC`: the TGI in the test on CCRF-CEM leukemia was 64.8 µM; in the test with HCT-15 colon, more than 100 µM; in the test with A549 NSCLC it was more than 100 µM; with OVCAR-4 ovarian, more than 100 µM; in the test with LOX IMVI melanoma it was more than 100 µM; with MCF7 breast, more than 100 µM. Further, the TGI in the test with UACC-62 melanoma, with IGROV1 ovarian, in the test on UO-31 renal, in the test on HL-60(TB) leukemia, in the test on M14 melanoma and in the test on T-47D breast was more than 100 µM in each case. In addition, the TGI with OVCAR-5 ovarian, in the test with SF-539 CNS, with HCC-2998 colon and with 786-0 renal was more than 100 µM throughout.
For the compound `COc1ccc(S(=O)(=O)NC(CCC(=O)NN)C(=O)NN)cc1` (configuration not stated), the TGI in the test on CCRF-CEM leukemia, in the test on HCT-15 colon, in the test with A549 NSCLC, in the test with A498 renal, in the test with OVCAR-4 ovarian and in the test on LOX IMVI melanoma was more than 100 µM each time. For the same compound, the TGI with MCF7 breast, in the test on UACC-62 melanoma, in the test with IGROV1 ovarian, in the test with UO-31 renal, with HL-60(TB) leukemia and in the test with M14 melanoma was more than 100 µM each time. Further, the TGI with T-47D breast, with OVCAR-5 ovarian, in the test with SF-539 CNS and in the test on 786-0 renal was more than 100 µM each time.
For the compound `CCN1C(=O)C(=C/C=C/C=C2/N(C)c3ccccc3C2(C)C)C(=O)N(CC)C1=S`, the TGI with CCRF-CEM leukemia, with HCT-15 colon, in the test on A549 NSCLC, in the test with A498 renal, in the test with OVCAR-4 ovarian and with LOX IMVI melanoma was more than 100 µM throughout. The TGI with MCF7 breast, with UACC-62 melanoma, with IGROV1 ovarian, with UO-31 renal, in the test on HL-60(TB) leukemia and in the test with M14 melanoma was more than 100 µM each time. Further, the TGI in the test with T-47D breast, with OVCAR-5 ovarian, with SF-539 CNS and with 786-0 renal was more than 100 µM in each case.
As to `COc1cc(/C=C2\N=C(c3ccccc3)N(c3nc4cc(C)c(C)cc4s3)C2=O)ccc1O`, the TGI with CCRF-CEM leukemia was 39.1 µM; in the test with HCT-15 colon, more than 100 µM; with A549 NSCLC, more than 100 µM; in the test on OVCAR-4 ovarian, more than 100 µM; in the test on LOX IMVI melanoma, more than 100 µM; with MCF7 breast it was 39.1 µM. In addition, the TGI in the test on UACC-62 melanoma was more than 100 µM; in the test with IGROV1 ovarian it was more than 100 µM; with UO-31 renal, more than 100 µM; with HL-60(TB) leukemia, 43.9 µM; in the test with M14 melanoma, more than 100 µM; with T-47D breast it was more than 100 µM. The TGI with OVCAR-5 ovarian is more than 100 µM; with SF-539 CNS, 60.9 µM; in the test on HCC-2998 colon, 69.9 µM; in the test on 786-0 renal, more than 100 µM.
Consider `O=C1/C(=C/c2ccc(OC(=O)c3ccccc3)cc2)CCC/C1=C\c1ccc(OC(=O)c2ccccc2)cc1`, for which the TGI in the test on CCRF-CEM leukemia, in the test on HCT-15 colon, in the test with A549 NSCLC, with OVCAR-4 ovarian, in the test with LOX IMVI melanoma and in the test on MCF7 breast was more than 100 µM throughout. Besides, the TGI with UACC-62 melanoma, in the test with IGROV1 ovarian, in the test with UO-31 renal, with HL-60(TB) leukemia, in the test with M14 melanoma and in the test with T-47D breast was more than 100 µM in each case. For the same compound, the TGI in the test on OVCAR-5 ovarian, in the test with SF-539 CNS, in the test with HCC-2998 colon and with 786-0 renal was more than 100 µM each time.
Turning to `CCCCCCCCCCCCN1[C@H]2CCC[C@H]2C(O)[C@@H]2CCC[C@@H]21` (some centres not stated), the TGI in the test with CCRF-CEM leukemia, in the test on HCT-15 colon, with A549 NSCLC, in the test on A498 renal, in the test on OVCAR-4 ovarian and with LOX IMVI melanoma was more than 100 µM in each case. Besides, the TGI with UACC-62 melanoma is more than 100 µM; with IGROV1 ovarian, more than 100 µM; in the test with HL-60(TB) leukemia it was more than 100 µM; in the test with M14 melanoma, more than 100 µM; in the test with T-47D breast, 88.2 µM; with OVCAR-5 ovarian, more than 100 µM. Besides, the TGI in the test with HCC-2998 colon and in the test on 786-0 renal was more than 100 µM each time.
Regarding `C/C(=N\n1c(Cc2ccccc2)n[nH]c1=O)c1ccccc1`, the TGI with CCRF-CEM leukemia, in the test on HCT-15 colon, with A549 NSCLC, in the test with A498 renal, with OVCAR-4 ovarian and in the test on LOX IMVI melanoma was more than 100 µM throughout. Also, the TGI in the test on MCF7 breast, with UACC-62 melanoma, in the test with IGROV1 ovarian, in the test on UO-31 renal, in the test on HL-60(TB) leukemia and with M14 melanoma was more than 100 µM throughout. For the same compound, the TGI in the test on T-47D breast, in the test on OVCAR-5 ovarian, in the test with SF-539 CNS and with 786-0 renal was more than 100 µM in each case.
As to `COc1cc(S(=O)(=O)Nc2nc(-c3ccc(N4C(=O)/C(=C/C=C/c5ccccc5)N=C4c4ccccc4)cc3)cs2)ccc1Cl`, the TGI in the test on CCRF-CEM leukemia, with HCT-15 colon, with A549 NSCLC, in the test on A498 renal, with OVCAR-4 ovarian and in the test with LOX IMVI melanoma was more than 100 µM in each case. Besides, the TGI in the test with MCF7 breast, in the test on UACC-62 melanoma, with IGROV1 ovarian, in the test on UO-31 renal, in the test on HL-60(TB) leukemia and with M14 melanoma was more than 100 µM in each case. In addition, the TGI in the test on T-47D breast, in the test on OVCAR-5 ovarian, with SF-539 CNS and in the test on 786-0 renal was more than 100 µM throughout.
